Measurements from US4554289A, “OF4949” (Takara Shuzo Co., Ltd., priority 1982, dated 1985).

Legend:
[1] = tested on: cellular immunity (delayed type hypersensitivity to sheep erythrocytes); assay: Delayed type hypersensitivity (DTH) to sheep erythrocytes, hind paw edema (cellular immunity); format: in vivo, CDF1 strain female mice; conditions: for Thickness of Edema (Mean Value ± Standard Error): hind paw, 24 hours after challenge; for Potentiating Ratio to Control: control = 100
Procedure: Thus, sheep erythrocytes are used as antigen and 1×10^5 of them are subjected to intravenous injection to CDF1 strain female mice of 10 weeks of age (8 mice per group) and, immediately after the sensitization, a solution of OF4949 or derivatives thereof in a sterilized water is injected intraperitoneally with dosages of 5, 50 or 500 μg/kg and, after four days, 10^8 sheep erythrocytes are injected subcutaneously into left hind paws of the mice. After 24 hours, the degree of edema, i.e. thickness of the paws at that time, observed at the hind paws is measured using a slide calipers.

[2] = Neutral, acidic or basic properties; format: physicochemical
ICR strains of mice = assay: Acute toxicity test, 300 mg/kg intraperitoneally; format: in vivo
Procedure: The compounds of the present invention are also characterized by a very low toxicity, making their administration to humans and animals facile. Acute toxicity tests injecting 300 mg/kg intraperitoneally of representative compounds of the present invention to ICR strains of mice produced the toxicity results set forth in Table 9 below: […]

Solubilities = format: physicochemical
[3] = in methyl alcohol and ethyl alcohol
[4] = in n-propyl alcohol, n-butyl alcohol, acetone, ethyl acetate, chloroform, ether, benzene, and hexane
[5] = in water, alkaline water, and dimethyl sulfoxide

SMILES | Thickness of Edema (Mean Value ± Standard Error) ([1]; 5 μg/kg intraperitoneally) [× 0.1 mm] | Potentiating Ratio to Control ([1]; 5 μg/kg intraperitoneally) [%] | Thickness of Edema (Mean Value ± Standard Error) ([1]; 50 μg/kg intraperitoneally) [× 0.1 mm] | Potentiating Ratio to Control ([1]; 50 μg/kg intraperitoneally) [%] | Thickness of Edema (Mean Value ± Standard Error) ([1]; 500 μg/kg intraperitoneally) [× 0.1 mm] | Potentiating Ratio to Control ([1]; 500 μg/kg intraperitoneally) [%] | Neutral, acidic or basic properties [2] | Acute toxicity test result (ICR strains of mice) | Solubility (Solubilities; [3]) | Solubility (Solubilities; [4]) | Solubility (Solubilities; [5])
COc1ccc2cc1Oc1ccc(cc1)CC(C(=O)O)NC(=O)C(C(O)C(=O)O)NC(=O)C(N)C2 (stereo not drawn) [Compound 18] | 8.2 ± 0.7 | 117 | 8.5 ± 0.7 | 121 | 7.5 ± 0.6 | 107 |  |  |  |  | 
COc1ccc2cc1Oc1ccc(cc1)CC(C(=O)O)NC(=O)C(C(O)C(N)=O)NC(=O)C(N)C2 (stereo not drawn) [OF4949-I] | 9.5 ± 0.6 | 132 | 11.7 ± 1.5 | 163 | 9.1 ± 0.5 | 126 | amphoteric | No toxicity is observed | hardly soluble | insoluble | soluble
COc1ccc2cc1Oc1ccc(cc1)CC(C(N)=O)NC(=O)C(C(O)C(N)=O)NC(=O)C(N)C2 (stereo not drawn) [Compound 17] | 8.8 ± 0.7 | 126 | 8.4 ± 0.7 | 120 | 8.5 ± 0.7 | 121 |  |  |  |  | 
NC1Cc2ccc(O)c(c2)Oc2ccc(cc2)CC(C(=O)O)NC(=O)C(C(O)C(=O)O)NC1=O (stereo not drawn) [Compound 2] | 9.3 ± 1.2 | 116 | 9.1 ± 1.1 | 114 | 10.2 ± 0.9 | 128 |  |  |  |  | 
COc1ccc2cc1Oc1ccc(cc1)CC(CO)NC(=O)C(C(O)CO)NC(=O)C(N)C2 (stereo not drawn) [Compound 21] | 7.8 ± 0.8 | 111 | 7.8 ± 0.7 | 111 | 8.7 ± 0.8 | 124 |  |  |  |  | 
NC(=O)C(O)C1NC(=O)C(N)Cc2ccc(O)c(c2)Oc2ccc(cc2)CC(C(=O)O)NC1=O (stereo not drawn) [OF4949-II] | 11.7 ± 1.9 | 127 | 13.5 ± 1.2 | 147 | 11.4 ± 2.6 | 124 | amphoteric |  | hardly soluble | insoluble | soluble
